{
  "source": "patent US9044531B2",
  "about": "“Vascular closure device” (Cordis Corporation, priority 2007, dated 2015)",
  "origin": "cited, not measured here",
  "test_system": "S. aureus",
  "settings": "measured in a suitable growth medium; Bhargava et al., American Journal of Infection Control, June 1996",
  "data": [
    {"smiles": "Oc1cc(Cl)ccc1Oc1ccc(Cl)cc1Cl", "note": "[2,4,4′-trichloro-2′-hydroxydiphenyl ether]", "values": [
      {"measurement": "minimum inhibitory concentration (MIC) against S. aureus", "result": 0.01, "unit": "ppm"}
    ]}
  ]
}
